In general, IC50 refers to the concentration at which inhibition is half-maximal.

The target of this assay is human NaV 1.8 (Homo sapiens, UniProt Q9Y5Y9). As to the kind of experiment: E-VIPR Assay Detecting and Measuring NaV Inhibition Properties. The class given is cell-based. To be noted: HEK cells expressing a truncated form of human NaV 1.8 with full channel activity; electrical stimulation, membrane potential FRET dyes; read-out: measured IC50 value in the E-VIPR Assay. The text has this: E-VIPR Assay Detecting and Measuring NaV Inhibition Properties
human NaV 1.8, sequence (Q9Y5Y9 126-1722 limits assumed): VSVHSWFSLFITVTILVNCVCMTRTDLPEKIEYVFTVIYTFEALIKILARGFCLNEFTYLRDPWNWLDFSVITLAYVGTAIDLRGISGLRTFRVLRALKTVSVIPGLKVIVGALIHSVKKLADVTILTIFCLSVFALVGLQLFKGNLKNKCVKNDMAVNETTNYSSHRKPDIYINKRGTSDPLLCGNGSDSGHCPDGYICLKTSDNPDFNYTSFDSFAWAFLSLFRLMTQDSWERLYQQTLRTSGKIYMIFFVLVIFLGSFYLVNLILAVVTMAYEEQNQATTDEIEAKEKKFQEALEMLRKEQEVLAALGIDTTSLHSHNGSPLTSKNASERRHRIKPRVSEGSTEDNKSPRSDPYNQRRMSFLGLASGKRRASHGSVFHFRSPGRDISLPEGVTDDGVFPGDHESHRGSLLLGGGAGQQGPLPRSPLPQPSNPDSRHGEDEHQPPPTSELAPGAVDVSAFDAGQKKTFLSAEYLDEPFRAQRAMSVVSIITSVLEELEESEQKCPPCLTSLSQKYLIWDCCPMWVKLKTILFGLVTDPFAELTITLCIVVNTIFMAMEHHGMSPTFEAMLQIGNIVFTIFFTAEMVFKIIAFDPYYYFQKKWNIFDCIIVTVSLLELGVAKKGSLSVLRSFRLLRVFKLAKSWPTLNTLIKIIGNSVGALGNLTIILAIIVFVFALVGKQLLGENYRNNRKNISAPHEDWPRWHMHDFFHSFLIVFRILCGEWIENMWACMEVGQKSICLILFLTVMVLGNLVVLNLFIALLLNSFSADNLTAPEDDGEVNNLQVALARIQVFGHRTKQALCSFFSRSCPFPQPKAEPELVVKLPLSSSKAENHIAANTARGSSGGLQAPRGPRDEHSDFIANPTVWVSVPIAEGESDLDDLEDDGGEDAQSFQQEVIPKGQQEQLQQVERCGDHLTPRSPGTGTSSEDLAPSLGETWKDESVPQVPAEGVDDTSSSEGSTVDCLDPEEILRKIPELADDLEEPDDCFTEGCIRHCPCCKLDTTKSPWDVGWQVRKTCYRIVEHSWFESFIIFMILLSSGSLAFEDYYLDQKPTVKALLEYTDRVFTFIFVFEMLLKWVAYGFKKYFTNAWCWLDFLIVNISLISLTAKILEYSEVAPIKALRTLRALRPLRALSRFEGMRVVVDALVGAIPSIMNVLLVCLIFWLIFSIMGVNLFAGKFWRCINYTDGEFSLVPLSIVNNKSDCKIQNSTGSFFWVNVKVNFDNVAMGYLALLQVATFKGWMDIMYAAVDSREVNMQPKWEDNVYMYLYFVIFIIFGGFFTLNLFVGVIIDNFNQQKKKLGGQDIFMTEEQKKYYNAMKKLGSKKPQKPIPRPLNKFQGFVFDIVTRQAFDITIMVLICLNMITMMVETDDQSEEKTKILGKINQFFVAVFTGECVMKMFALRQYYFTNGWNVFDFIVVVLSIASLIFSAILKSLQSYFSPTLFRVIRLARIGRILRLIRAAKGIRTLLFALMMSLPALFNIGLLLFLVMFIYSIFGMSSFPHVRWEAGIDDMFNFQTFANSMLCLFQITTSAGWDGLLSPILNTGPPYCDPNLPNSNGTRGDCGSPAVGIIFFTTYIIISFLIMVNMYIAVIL
Sodium ion channels are voltage-dependent proteins that can be activated by inducing membrane voltage changes by applying electric fields. The electrical stimulation instrument and methods of use, referred to as E-VIPR, are described in International Publication No. WO 2002/008748 A3 and C.-J. Huang et al. Characterization of voltage-gated sodium channel blockers by electrical stimulation and fluorescence detection of membrane potential, 24 Nature Biotech. 439-46 (2006), both of which are incorporated by reference in their entirety. The instrument comprises a microtiter plate handler, an optical system for exciting the coumarin dye while simultaneously recording the coumarin and oxonol emissions, a waveform generator, a current- or voltage-controlled amplifier, and parallel electrode pairs that are inserted into assay plate wells. Under integrated computer control, this instrument passes user-programmed electrical stimulus protocols to cells within the wells of the microtiter plate.
16-20 hours prior to running the assay on E-VIPR, HEK cells expressing a truncated form of human NaV 1.8 with full channel activity were seeded into microtiter 384-well plates, pre-coated with matrigel, at a density of 25,000 cells per well. 2.5-5% KIR2.1 Bacmam virus was added to the final cell suspension before seeding into cell plates. HEK cells were grown in Dulbecco's Modified Eagle's Medium (DMEM) supplemented with 10% FBS (Fetal Bovine Serum, qualified; Sigma #F4135), 1% NEAA (Non-Essential Amino Acids, Gibco #11140), 1% HEPES (Gibco #15630), 1% Pen-Strep (Penicillin-Streptomycin; Gibco #15140) and 5 μg/ml Blasticidin (Gibco #R210-01). Cells were expanded in vented cap cell culture flasks, with 90-95% humidity and 5% CO2.
2.5-5% KIR 2.1 Bacmam virus (produced in-house), prepared as described in Section 3.3 of J. A. Fornwald et al., Gene Expression in Mammalian Cells Using BacMam, a Modified Baculovirus System, 1350 Methods in Molecular Biology 95-116 (2016), the entire contents of which are incorporated by reference. The concentration used can be dependent on viral titer of each batch.
5 mM DiSBAC6(3), a voltage sensitive oxonol acceptor (CAS number 169211-44-3; 5-[3-(1,3-dihexylhexahydro-4,6-dioxo-2-thioxo-5-pyrimidinyl)-2-propen-1-ylidene]-1,3-dihexyldihydro-2-thioxo-4,6(1H,5H)-pyrimidinedione), in dry DMSO. The preparation of DiSBAC6(3) is analogous to that of DiSBAC4(3) as described in Voltage Sensing by Fluorescence Resonance Energy Transfer in Single Cells, Gonzalez, J. E. and Tsien, R. Y. (1995) Biophys. J. 69, 1272-1280.
5 mM CC2-DMPE, a commercially available membrane-bound coumarin phospholipid FRET donor (ThermoFisher Scientific catalog number K1017, CAS number 393782-57-5; tetradecanoic acid, 1,1′-[(1R)-1-[8-(6-chloro-7-hydroxy-2-oxo-2H-1-benzopyran-3-yl)-3-hydroxy-3-oxido-8-oxo-2,4-dioxa-7-aza-3-phosphaoct-1-yl]-1,2-ethanediyl] ester) was prepared in dry DMSO. See also, Improved indicators of cell membrane potential that use fluorescence resonance energy transfer, Gonzalez, J. E. and Tsien, R. Y. (1997) Chem. Biol. 4, 269-277.
Voltage Assay Background Suppression Compound (VABSC-1) is prepared in H2O (89-363 mM, range used to maintain solubility)
Human Serum (HS, Millipore #S1P1-01KL, or Sigma SLBR5469V and SLBR5470V as a 50%/50% mixture, for 25% assay final concentration)
• Sodium Chloride 160 mM (9.35 g/L), Potassium Chloride, 4.5 mM (0.335 g/L), Glucose • 10 mM (1.8 g/L), Magnesium Chloride (Anhydrous) 1 mM (0.095 g/L), Calcium • Chloride 2 mM (0.222 g/L), HEPES 10 mM (2.38 g/L) in water.
• Sodium Chloride 96 mM (5.61 g/L), Potassium Chloride 4.5 mM (0.335 g/L), • Tetramethylammonium (TMA)-Cl 64 mM (7.01 g/L), Glucose 10 mM (1.8 g/L), • Magnesium Chloride (Anhydrous) 1 mM (0.095 g/L), Calcium Chloride 2 mM (0.222 • g/L) HEPES 10 mM (2.38 g/L) in water. […]
In the case of `COc1c([C@H]2[C@H](C(=O)Nc3cnc4c(c3)OCC4O)O[C@@](C)(C(F)(F)F)[C@H]2C)ccc(F)c1F` (single isomer, unassigned) [Compound 1, rel-(2R*,3S*,4S*,5R*)-3-(3,4-difluoro-2-methoxyphenyl)-N-(3-hydroxy-2,3-dihydrofuro[3,2-b]pyridin-6-yl)-4,5-dimethyl-5-(trifluoromethyl)tetrahydrofuran-2-carboxamide], the IC50 was in the range of 10 to 100 nM. Regarding `COc1c([C@H]2[C@H](C(=O)Nc3cnc4c(c3)OCC4O)O[C@@](C)(C(F)(F)F)[C@H]2C)ccc(F)c1F` (single isomer, unassigned) [Compound 2, rel-(2R*,3S*,4S*,5R*)-3-(3,4-difluoro-2-methoxyphenyl)-N-(3-hydroxy-2,3-dihydrofuro[3,2-b]pyridin-6-yl)-4,5-dimethyl-5-(trifluoromethyl)tetrahydrofuran-2-carboxamide], the IC50 fell in the range of 100 to 1000 nM. In the case of `COc1c([C@H]2[C@H](C(=O)Nc3cnc4c(c3)CCC4O)O[C@@](C)(C(F)(F)F)[C@H]2C)ccc(F)c1F` (single isomer, unassigned) [Compound 3, rel-(2R*,3S*,4S*,5R*)-3-(3,4-difluoro-2-methoxyphenyl)-N-(7-hydroxy-6,7-dihydro-5H-cyclopenta[b]pyridin-3-yl)-4,5-dimethyl-5-(trifluoromethyl)tetrahydrofuran-2-carboxamide], the IC50 was in the range of 100 to 1000 nM. Turning to `COc1c([C@H]2[C@H](C(=O)Nc3cnc4c(c3)CCC4O)O[C@@](C)(C(F)(F)F)[C@H]2C)ccc(F)c1F` (single isomer, unassigned) [Compound 4, rel-(2R*,3S*,4S*,5R*)-3-(3,4-difluoro-2-methoxyphenyl)-N-(7-hydroxy-6,7-dihydro-5H-cyclopenta[b]pyridin-3-yl)-4,5-dimethyl-5-(trifluoromethyl)tetrahydrofuran-2-carboxamide], the concentration for half-maximal inhibition (IC50) is 10 to 100 nM. On to `COCCOc1c([C@@H]2[C@@H](C(=O)Nc3cnc(C(O)CO)nc3)O[C@](C)(C(F)(F)F)[C@@H]2C)ccc(F)c1C` (single isomer, unassigned) [Compound 13], for which the half-inhibitory concentration (IC50) was not below 1000 nM.

For the compound `COCCOc1c([C@H]2[C@@H](C)[C@@](C)(C(F)(F)F)O[C@H]2C(=O)Nc2cnc(C(O)CO)nc2)ccc(F)c1C` (single isomer, unassigned) [Compound 15], the half-inhibitory concentration (IC50) is not below 1000 nM. For `COCCOc1c([C@H]2[C@@H](C(=O)Nc3cnc(C(O)CO)nc3)O[C@@](C)(C(F)(F)F)[C@H]2C)ccc(F)c1C` (single isomer, unassigned) [Compound 16], the IC50 was not below 1000 nM.

As for `COCCOc1c([C@H]2[C@H](C(=O)Nc3cnc(C(O)CO)nc3)O[C@@](C)(C(F)(F)F)[C@H]2C)ccc(F)c1C` (single isomer, unassigned) [Compound 17], the IC50 is 10 to 100 nM.

For the compound `COCCOc1c([C@H]2[C@H](C(=O)Nc3ccc(C(O)COC)nc3)O[C@@](C)(C(F)(F)F)[C@H]2C)ccc(F)c1F` (single isomer, unassigned) [Compound 21, rel-(2R*,3S*,4S*,5R*)-3-(3,4-difluoro-2-(2-methoxyethoxy)phenyl)-N-(6-(1-hydroxy-2-methoxyethyl)pyridin-3-yl)-4,5-dimethyl-5-(trifluoromethyl)tetrahydrofuran-2-carboxamide], the IC50 lay in the range of 10 to 100 nM. In the case of `CO[C@@H](C)COc1c([C@H]2[C@H](C(=O)Nc3ccc(CO)nc3)O[C@@](C)(C(F)(F)F)[C@H]2C)ccc(F)c1F` [Compound 5, (2R,3S,4S,5R)-3-(3,4-difluoro-2-((S)-2-methoxypropoxy)phenyl)-N-(6-(hydroxymethyl)pyridin-3-yl)-4,5-dimethyl-5-(trifluoromethyl)tetrahydrofuran-2-carboxamide], the IC50 was in the range of 10 to 100 nM. As for `CO[C@H](C)COc1c([C@H]2[C@H](C(=O)Nc3ccc(CO)nc3)O[C@@](C)(C(F)(F)F)[C@H]2C)ccc(F)c1F` [Compound 6, (2R,3S,4S,5R)-3-(3,4-difluoro-2-((R)-2-methoxypropoxy)phenyl)-N-(6-(hydroxymethyl)pyridin-3-yl)-4,5-dimethyl-5-(trifluoromethyl)tetrahydrofuran-2-carboxamide], the half-maximal inhibitory concentration (IC50) was in the range of 10 to 100 nM.

Regarding `C[C@H]1[C@@H](c2ccc(F)c(F)c2OCC(=O)N(C)C)[C@H](C(=O)Nc2ccc(CO)nc2)O[C@@]1(C)C(F)(F)F` [Compound 7, (2R,3S,4S,5R)-3-(2-(2-(dimethylamino)-2-oxoethoxy)-3,4-difluorophenyl)-N-(6-(hydroxymethyl)pyridin-3-yl)-4,5-dimethyl-5-(trifluoromethyl)tetrahydrofuran-2-carboxamide], the IC50 lay in the range of 10 to 100 nM. Then `C[C@H]1[C@@H](c2ccc(F)c(F)c2OC2CC3(COC3)C2)[C@H](C(=O)Nc2ccc(CO)nc2)O[C@@]1(C)C(F)(F)F` [Compound 8, (2R,3S,4S,5R)-3-(2-((2-oxaspiro[3.3]heptan-6-yl)oxy)-3,4-difluorophenyl)-N-(6-(hydroxymethyl)pyridin-3-yl)-4,5-dimethyl-5-(trifluoromethyl)tetrahydrofuran-2-carboxamide], with 100 to 1000 nM. In the case of `C[C@H]1[C@@H](c2ccc(F)c(F)c2OCC2CCOC2)[C@H](C(=O)Nc2ccc(CO)nc2)O[C@@]1(C)C(F)(F)F` (stereo partly drawn) [Compound 9, (2R,3S,4S,5R)-3-(3,4-difluoro-2-((tetrahydrofuran-3-yl)methoxy)phenyl)-N-(6-(hydroxymethyl)pyridin-3-yl)-4,5-dimethyl-5-(trifluoromethyl)tetrahydrofuran-2-carboxamide], the IC50 was in the range of 10 to 100 nM. For `COCCOc1c([C@H]2[C@H](C(=O)Nc3ccc([C@@H](O)CO)nc3)O[C@@](C)(C(F)(F)F)[C@H]2C)ccc(F)c1F` [Compound 10, (2R,3S,4S,5R)-3-(3,4-difluoro-2-(2-methoxyethoxy)phenyl)-N-(6-((R)-1,2-dihydroxyethyl)pyridin-3-yl)-4,5-dimethyl-5-(trifluoromethyl)tetrahydrofuran-2-carboxamide], the IC50 was less than 10 nM.

For the compound `C[C@H]1[C@@H](c2ccc(F)c(F)c2OCCN2CCOCC2)[C@H](C(=O)Nc2ccc([C@@H](O)CO)nc2)O[C@@]1(C)C(F)(F)F` [Compound 11, (2R,3S,4S,5R)-3-(3,4-difluoro-2-(2-morpholinoethoxy)phenyl)-N-(6-((R)-1,2-dihydroxyethyl)pyridin-3-yl)-4,5-dimethyl-5-(trifluoromethyl)tetrahydrofuran-2-carboxamide], the half-inhibitory concentration (IC50) lay in the range of 10 to 100 nM. As for `C[C@H]1[C@@H](c2ccc(F)c(F)c2OCCOC(F)F)[C@H](C(=O)Nc2ccc([C@@H](O)CO)nc2)O[C@@]1(C)C(F)(F)F` [Compound 12, (2R,3S,4S,5R)-3-(2-(2-(difluoromethoxy)ethoxy)-3,4-difluorophenyl)-N-(6-((R)-1,2-dihydroxyethyl)pyridin-3-yl)-4,5-dimethy1-5-(trifluoromethyl)tetrahydrofuran-2-carboxamide], the figure is 10 to 100 nM; as for `C[C@H]1[C@@H](c2ccc(F)c(F)c2OCCO)[C@H](C(=O)Nc2ccc(CO)nc2)O[C@@]1(C)C(F)(F)F` [Compound 23, (2R,3S,4S,5R)-3-(3,4-difluoro-2-(2-hydroxyethoxy)phenyl)-N-(6-(hydroxymethyl)pyridin-3-yl)-4,5-dimethyl-5-(trifluoromethyl)tetrahydrofuran-2-carboxamide], 10 to 100 nM.

The values are drawn from patent US20240400544A1, “N-(HYDROXYALKYL (HETERO)ARYL) TETRAHYDROFURAN CARBOXAMIDE ANALOGS AS MODULATORS OF SODIUM CHANNELS” (VERTEX PHARMACEUTICALS INCORPORATED, priority 2021, published 2024).
